A word on the pIC50: it is the IC50 on a negative log10 scale, so that one unit is a factor of ten.

pIC50: −log10 of the molar value. Read-outs that look alike come from different tables or passages of the source.

The record followed here is US11584747B2, “Substituted pyridopyrimidinonyl compounds useful as T cell activators” (BRISTOL-MYERS SQUIBB COMPANY, priority 2019, dated 2023).

One experiment deals with human DGKα (Homo sapiens (Human), UniProt P23743). Briefly: DGKα ADPGLO assay (detergent/lipid micelle substrate). The class given is biochemical. On the procedure: DGK Alpha ADPGLO (Truncated) IC50 (uM)
Chain of human DGKα (P23743 whole entry, looked up, the tested form may be a part): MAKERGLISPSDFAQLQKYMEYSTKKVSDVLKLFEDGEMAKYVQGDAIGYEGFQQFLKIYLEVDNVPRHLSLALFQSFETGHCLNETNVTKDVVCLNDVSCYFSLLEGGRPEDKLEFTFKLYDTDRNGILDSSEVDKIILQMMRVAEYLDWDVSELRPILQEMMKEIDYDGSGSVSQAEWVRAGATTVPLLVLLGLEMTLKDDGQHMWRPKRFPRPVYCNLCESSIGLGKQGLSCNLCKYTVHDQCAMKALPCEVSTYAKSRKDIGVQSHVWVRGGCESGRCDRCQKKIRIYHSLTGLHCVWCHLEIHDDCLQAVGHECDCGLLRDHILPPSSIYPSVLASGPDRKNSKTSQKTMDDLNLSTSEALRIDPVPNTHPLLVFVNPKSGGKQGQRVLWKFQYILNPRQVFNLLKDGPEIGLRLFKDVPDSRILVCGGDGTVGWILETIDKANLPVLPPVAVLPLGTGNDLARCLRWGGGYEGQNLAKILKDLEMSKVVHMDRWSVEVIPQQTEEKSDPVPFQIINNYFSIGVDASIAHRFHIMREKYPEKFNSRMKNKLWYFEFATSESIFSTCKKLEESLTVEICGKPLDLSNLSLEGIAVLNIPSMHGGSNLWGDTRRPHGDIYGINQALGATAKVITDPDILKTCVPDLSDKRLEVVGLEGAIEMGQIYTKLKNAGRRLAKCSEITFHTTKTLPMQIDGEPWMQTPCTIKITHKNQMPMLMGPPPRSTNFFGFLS
The detergent/lipid micelle was prepared by combining 15 g phosphatidylserine (Avanti 840035P) and 1 g diacylglycerol (8008110) and dissolving into 150 mL chloroform in a 2 L round bottom flask. Chloroform was removed under high vacuum by rotary evaporation. […] The lipid/detergent solution was split into 5 mL aliquots and stored at −80° C.

The next experiment concerns the target human DGKζ (Homo sapiens (Human), UniProt Q13574). Briefly: DGKζ LIPGLO assay (extruded liposome substrate, ADP-Glo luminescence). The class given is biochemical. Background: ADP-Glo first removes unused ATP, then detects ADP through luciferase.
Where [1] appears, read: ADPGLO assay, read-out: DGK alpha ADPGLO IC50.
The mark [2] stands for this setting: liposome (LIPGLO) assay, read-out: DGK zeta (liposome assay) IC50.
Where [3] appears, read: truncated DGK alpha, read-out: DGK alpha ADPGLO (Truncated) IC50.
Where [4] appears, read: liposome assay, read-out: DGK zeta LIPGLO IC50.

Chain of human DGKζ (Q13574 other isoform, or with tags, fused parts or gaps): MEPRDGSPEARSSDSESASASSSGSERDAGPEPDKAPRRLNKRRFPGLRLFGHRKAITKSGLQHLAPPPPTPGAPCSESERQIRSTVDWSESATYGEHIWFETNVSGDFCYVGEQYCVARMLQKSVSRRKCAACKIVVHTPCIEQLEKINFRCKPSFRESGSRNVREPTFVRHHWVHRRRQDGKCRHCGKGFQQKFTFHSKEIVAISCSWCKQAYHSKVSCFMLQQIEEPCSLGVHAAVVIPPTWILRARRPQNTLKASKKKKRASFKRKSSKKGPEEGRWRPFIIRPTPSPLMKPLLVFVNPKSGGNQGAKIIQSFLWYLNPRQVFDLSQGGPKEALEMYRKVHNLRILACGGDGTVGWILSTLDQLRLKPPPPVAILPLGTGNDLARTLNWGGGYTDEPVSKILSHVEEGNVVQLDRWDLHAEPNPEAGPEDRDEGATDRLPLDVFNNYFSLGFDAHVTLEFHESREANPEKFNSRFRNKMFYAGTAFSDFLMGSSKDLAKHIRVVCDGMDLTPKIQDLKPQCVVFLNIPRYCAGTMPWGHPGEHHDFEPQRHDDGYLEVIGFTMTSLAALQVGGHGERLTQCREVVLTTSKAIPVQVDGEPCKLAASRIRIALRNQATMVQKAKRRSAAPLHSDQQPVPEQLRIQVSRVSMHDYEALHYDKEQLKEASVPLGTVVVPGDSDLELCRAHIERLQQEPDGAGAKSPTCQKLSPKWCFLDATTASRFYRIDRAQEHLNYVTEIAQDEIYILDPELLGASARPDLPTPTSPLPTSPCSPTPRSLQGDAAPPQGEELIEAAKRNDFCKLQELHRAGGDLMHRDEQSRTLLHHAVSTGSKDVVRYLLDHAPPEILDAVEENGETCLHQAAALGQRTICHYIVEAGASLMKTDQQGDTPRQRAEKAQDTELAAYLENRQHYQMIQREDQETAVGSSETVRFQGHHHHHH

As for `CCC(c1ccc(C2CC2)cc1F)N1C[C@H](C)N(c2nc(=O)n(C)c3ccc(C#N)nc23)C[C@H]1C` (stereo partly drawn) [Example 381, 4-((2S,5R)-4-(1-(4-cyclopropyl-2-fluorophenyl)propyl)-2,5-dimethylpiperazin-1-yl)-1-methyl-2-oxo-1,2-dihydropyrido[3,2-d]pyrimidine-6-carbonitrile], the pIC50 at human DGKα (setting [1]) is 6.07; at human DGKζ (setting [2]), 5.47.
For the molecule `CCC(c1ccc(OC(C)C)cc1)N1C[C@H](CC)N(c2nc(=O)n(C)c3ccc(C#N)nc23)C[C@H]1CC` (stereo partly drawn) [Example 235, 4-((2S,5R)-2,5-diethyl-4-(1-(4-isopropoxyphenyl)propyl)piperazin-1-yl)-1-methyl-2-oxo-1,2-dihydropyrido[3,2-d] pyrimidine-6-carbonitrile], the pIC50 is 6.37 on human DGKα (setting [3]) and 6.11 on human DGKζ (setting [4]).
Turning to `CCC(C1CC(F)(F)C1)N1C[C@H](C)N(c2nc(=O)n(C)c3ccc(C#N)nc23)C[C@H]1C` (stereo partly drawn) [Example 457, 4-((2S,5R)-4-(1-(3,3-difluorocyclobutyl)propyl)-2,5-dimethylpiperazin-1-yl)-1-methyl-2-oxo-1,2-dihydropyrido[3,2-d]pyrimidine-6-carbonitrile], the pIC50 at human DGKα (setting [1]) is 5.40; at human DGKζ (setting [2]), 5.98.
For the molecule `CCC(c1ccc(C2CC2)cc1F)N1C[C@H](C)N(c2nc(=O)n(C)c3ccc(C#N)nc23)C[C@H]1CC` (stereo partly drawn) [Example 303, 4-((2S,5R)-4-(1-(4-cyclopropyl-2-fluorophenyl)propyl)-5-ethyl-2-methylpiperazin-1-yl)-1-methyl-2-oxo-1,2-dihydropyrido[3,2-d]pyrimidine-6-carbonitrile], the results for the pIC50 at human DGKα (setting [3]) and on human DGKζ (setting [4]) were 5.75 and 5.29, respectively.
Consider `CCC(c1ccc(Br)cc1)N1C[C@H](C)N(c2nc(=O)n(C)c3ccc(C#N)nc23)C[C@H]1CC` (stereo partly drawn) [Example 321, 4-((2 S,5R)-4-(1-(4-bromophenyl)propyl)-5-ethyl-2-methylpiperazin-1-yl)-1-methyl-2-oxo-1,2-dihydropyrido[3,2-d]pyrimidine-6-carbonitrile], for which the pIC50 on human DGKα (setting [1]) was 8.00; on human DGKζ (setting [2]), 7.42.
For the molecule `CC[C@H]1CN(C(C)c2ccc(CN3CCN(C)C(=O)C3)cc2)[C@H](CC)CN1c1nc(=O)n(C)c2ccc(C#N)nc12` (stereo partly drawn) [Example 288, 4-((2S,5R)-2,5-diethyl-4-(1-(4-((4-methyl-3-oxopiperazin-1-yl)methyl)phenyl)ethyl)piperazin-1-yl)-1-methyl-2-oxo-1,2-dihydropyrido[3,2-d]pyrimidine-6-carbonitrile], the pIC50 at human DGKα (setting [3]) is 5.39; at human DGKζ (setting [4]) it was 4.50.
In the case of `CCOc1ccc(C(CC)N2C[C@H](C)N(c3nc(=O)n(C)c4ccc(C#N)nc34)C[C@H]2CC)cc1` (stereo partly drawn) [Example 307, 4-((2S,5R)-4-(1-(4-ethoxyphenyl)propyl)-5-ethyl-2-methylpiperazin-1-yl)-1-methyl-2-oxo-1,2-dihydropyrido[3,2-d]pyrimidine-6-carbonitrile], the pIC50 on human DGKα (setting [1]) is 6.85; at human DGKζ (setting [2]), 6.11.
In the case of `CC[C@H]1CN(C(C)c2ccc3oc(C4CC4)nc3c2)[C@H](CC)CN1c1nc(=O)n(C)c2ccc(C#N)nc12` (stereo partly drawn) [Example 253, 4-((2S,5R)-4-(1-(2-cyclopropylbenzo[d]oxazol-5-yl)ethyl)-2,5-diethylpiperazin-1-yl)-1-methyl-2-oxo-1,2-dihydropyrido[3,2-d]pyrimidine-6-carbonitrile], the pIC50 on human DGKα (setting [3]) was 5.42; on human DGKζ (setting [4]), 7.01.
For `CC[C@H]1CN(C(C)c2ccc(CN3CCC(O)CC3)cc2)[C@H](CC)CN1c1nc(=O)n(C)c2ccc(C#N)nc12` (stereo partly drawn) [Example 285, 4-((2S,5R)-2,5-diethyl-4-(1-(4-((4-hydroxypiperidin-1-yl)methyl)phenyl)ethyl)piperazin-1-yl)-1-methyl-2-oxo-1,2-dihydropyrido[3,2-d]pyrimidine-6-carbonitrile], the pIC50 on human DGKα (setting [3]) was 5.39; at human DGKζ (setting [4]) it was 5.07.
Turning to `CCC(c1ccc(C2CC2)cc1F)N1C[C@H](C)N(c2nc(=O)n(C)c3ccc(C#N)nc23)C[C@H]1C` (stereo partly drawn) [Example 380, 4-((2S,5R)-4-(1-(4-cyclopropyl-2-fluorophenyl)propyl)-2,5-dimethylpiperazin-1-yl)-1-methyl-2-oxo-1,2-dihydropyrido[3,2-d]pyrimidine-6-carbonitrile], the pIC50 is 7.54 on human DGKα (setting [1]) and 6.74 on human DGKζ (setting [2]).
Take `CCC(C1CC(F)(F)C1)N1C[C@H](C)N(c2nc(=O)n(C)c3ccc(C#N)nc23)C[C@H]1C` (stereo partly drawn) [Example 456, 4-((2S,5R)-4-(1-(3,3-difluorocyclobutyl)propyl)-2,5-dimethylpiperazin-1-yl)-1-methyl-2-oxo-1,2-dihydropyrido[3,2-d]pyrimidine-6-carbonitrile]: the results for the pIC50 at human DGKα (setting [1]) and on human DGKζ (setting [2]) were 4.99 and 4.92, respectively.
On the same counts, the results for `CCC(C1CC1)N1C[C@H](C)N(c2nc(=O)n(C)c3ccc(C#N)nc23)C[C@H]1C` (stereo partly drawn) [Example 455, 4-((2S,5R)-4-(1-cyclopropylpropyl)-2,5-dimethylpiperazin-1-yl)-1-methyl-2-oxo-1,2-dihydropyrido[3,2-d]pyrimidine-6-carbonitrile] are 5.29 and 5.12.
Turning to `CCC(c1ccc(OC(F)F)cc1)N1C[C@H](CC)N(c2nc(=O)n(C)c3ccc(C#N)nc23)C[C@H]1CC` (stereo partly drawn) [Example 222, 4-((2S,5R)-4-(1-(4-(difluoromethoxy)phenyl)propyl)-2,5-diethylpiperazin-1-yl)-1-methyl-2-oxo-1,2-dihydropyrido[3,2-d]pyrimidine-6-carbonitrile], the pIC50 on human DGKα (setting [3]) was 8.70; at human DGKζ (setting [4]) it was 7.77.
The like results for `CCC(c1ccc(C2CC2)cc1)N1C[C@H](C)N(c2nc(=O)n(C)c3ccc(C#N)nc23)C[C@H]1CC` (stereo partly drawn) [Example 300, 4-((2S,5R)-4-(1-(4-cyclopropylphenyl)propyl)-5-ethyl-2-methylpiperazin-1-yl)-1-methyl-2-oxo-1,2-dihydropyrido[3,2-d]pyrimidine-6-carbonitrile] were, in that order, 7.89 and 7.66.
Consider `CCC(C1CCC(F)(F)CC1)N1C[C@H](C)N(c2nc(=O)n(C)c3ccc(C#N)nc23)C[C@H]1C` (stereo partly drawn) [Example 459, 4-((2S,5R)-4-(1-(4,4-difluorocyclohexyl)propyl)-2,5-dimethylpiperazin-1-yl)-1-methyl-2-oxo-1,2-dihydropyrido[3,2-d]pyrimidine-6-carbonitrile], for which the pIC50 on human DGKα (setting [1]) was 4.53; at human DGKζ (setting [2]), 4.62.
Turning to `CCC(c1ccc(C2CC2)cc1)N1C[C@H](C)N(c2nc(=O)n(C)c3ccc(C#N)nc23)C[C@H]1C` (stereo partly drawn) [Example 378, 4-((2S,5R)-4-(1-(4-cyclopropylphenyl)propyl)-2,5-dimethylpiperazin-1-yl)-1-methyl-2-oxo-1,2-dihydropyrido[3,2-d]pyrimidine-6-carbonitrile], the pIC50 is 6.80 on human DGKα (setting [1]) and 6.82 on human DGKζ (setting [2]).
As for `CC[C@@H]1CN(c2nc(=O)n(C)c3ccc(C#N)nc23)[C@@H](C)CN1C(C)c1ccc(CNC(=O)OC)cc1` (stereo partly drawn) [Example 360, Methyl (4-(1-((2R,5S)-4-(6-cyano-1-methyl-2-oxo-1,2-dihydropyrido[3,2-d]pyrimidin-4-yl)-2-ethyl-5-methylpiperazin-1-yl)ethyl)benzyl)carbamate], the pIC50 at human DGKα (setting [1]) is 6.82; at human DGKζ (setting [2]), 6.18.
The like results for `CC[C@H]1CN(C(C)c2ccc(C(F)(F)F)cc2)[C@H](CC)CN1c1nc(=O)n(C)c2ccc(OC(F)F)nc12` (stereo partly drawn) [Example 444, 4-((2S,5R)-2,5-Diethyl-4-(1-(4-(trifluoromethyl)phenyl)ethyl)piperazin-1-yl)-6-(difluoromethoxy)-1-methylpyrido[3,2-d]pyrimidin-2(1H)-one] were, in that order, 6.40 and 6.74.
The like results for `CCC(C1CC(F)(F)C1)N1C[C@H](C)N(c2nc(=O)n(C)c3ccc(C#N)nc23)C[C@H]1C` (stereo partly drawn) [Example 458, 4-((2S,5R)-4-(1-(3,3-difluorocyclobutyl)propyl)-2,5-dimethylpiperazin-1-yl)-1-methyl-2-oxo-1,2-dihydropyrido[3,2-d]pyrimidine-6-carbonitrile] were, in that order, 5.11 and 5.19.
For `CCC(c1ccc(OC2CC2)cc1)N1C[C@H](C)N(c2nc(=O)n(C)c3ccc(C#N)nc23)C[C@H]1CC` (stereo partly drawn) [Example 312, 4-((2S,5R)-4-(1-(4-cyclopropoxyphenyl)propyl)-5-ethyl-2-methylpiperazin-1-yl)-1-methyl-2-oxo-1,2-dihydropyrido[3,2-d]pyrimidine-6-carbonitrile], the pIC50 on human DGKα (setting [1]) is 6.22; at human DGKζ (setting [2]), 6.06.
On the same counts, the results for `CCC(c1ccc(C(F)(F)F)cc1)N1C[C@H](C)N(c2nc(=O)n(C)c3ccc(C#N)nc23)C[C@H]1COC` (single isomer, unassigned) [Example 398] are 7.05 and 7.19.
For the molecule `CC[C@H]1CN(C(c2ccc(F)cc2)c2cccc(C(F)F)n2)[C@H](CC)CN1c1nc(=O)n(C)c2ccc(C#N)nc12` (stereo partly drawn) [Example 258, 4-((2S,5R)-4((6-(difluoromethyl)pyridin-2-yl)(4-fluorophenyl)methyl)-2,5-diethylpiperazin-1-yl)-1-methyl-2-oxo-1,2-dihydropyrido[3,2-d]pyrimidine-6-carbonitrile], the pIC50 was 7.19 on human DGKα (setting [3]) and 6.44 on human DGKζ (setting [4]).
On to `CC[C@H]1CN(C(C)c2ccc(C(F)(F)F)cc2)[C@H](CC)CN1c1nc(=O)n(C)c2ccc(COC)nc12` (single isomer, unassigned) [Example 425], for which the pIC50 at human DGKα (setting [1]) was 4.08; at human DGKζ (setting [2]), 4.90.
On the same counts, the results for `CCOc1ccc2c(n1)c(N1C[C@@H](CC)N(C(CC)c3ccc(C(F)(F)F)cc3)C[C@@H]1CC)nc(=O)n2C` (stereo partly drawn) [Example 437, 4-((2S,5R)-2,5-diethyl-4-(1-(4-(trifluoromethyl)phenyl)propyl)piperazin-1-yl)-6-ethoxy-1-methylpyrido[3,2-d]pyrimidin-2(1H)-one] are 3.60 and 3.60.
